Data on six compounds can be found in ChEMBL document CHEMBL1201862, “PubChem BioAssay data set” (2004).

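The compound was tested at five concentrations on cells cultured in 96-well plates, with a 48-hour exposure period. At the GI50, growth is halved.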 Active and inactive are the calls of the source. No stated cut-off is given here; in the data, active = GI50 up to about 1.1 µM and inactive = higher.

Holding throughout (assay): NCI tumour cell line growth inhibition, 48 h
Test [1] concerns A498.
The test system of test [2] is A549.
Test [3] has as its system CAKI-1.
Test [4] has as its system HCT-15.
The subject of test [5] is KM12.
In test [6] the test system is LOX IMVI.
Test [7] relates to SK-MEL-28.
In test [8] the test system is SK-OV-3.
The test system of test [9] is SNB-19.
In test [10] the test system is SNB-75.
Test [11] has as its system SR.
Test [12] concerns TK-10.
For test [13], the system named is UO-31.
For test [14], the system named is HT-29.
For test [15], the system named is Malme-3M.

In the case of `OCCN(CCO)c1cccc(N(CCO)CCO)n1`, the GI50 was > 100 µM (inactive) in test [1]; > 100 µM (inactive) in test [2]; > 100 µM (inactive) in test [3]; greater than 100 µM in [4]; > 100 µM (inactive) in test [5]; > 100 µM (inactive) in [6]. The GI50 in [7], in test [8], in test [9], in test [10], in [11] and in test [12] was > 100 µM (inactive) in each case. In test [13], the GI50 is > 100 µM (inactive).
For the compound `CCCCN(CCCC)CC(C(=O)Nc1ccccc1)/C(C)=N\NC(=O)c1ccncc1` (stereo not given), the GI50 in test [2] is > 100 µM (inactive); in [3] it was > 100 µM (inactive); in test [4] it was greater than 100 µM; in test [14], > 100 µM (inactive); in test [5] it was > 100 µM (inactive); in [6], 81.5 µM (inactive). Besides, the GI50 in test [15] was > 100 µM (inactive); in test [7], > 100 µM (inactive); in test [8], > 100 µM (inactive); in test [9] it was > 100 µM (inactive); in [10], 16.9 µM (inactive); in test [11], > 100 µM (inactive). Also, the GI50 in test [12] was > 100 µM (inactive); in [13], 28.5 µM (inactive).
As for `Cc1cccc2c(O)cc(=O)oc12`, the GI50 in test [1], in [2], in test [14], in test [5], in test [6] and in test [15] was > 100 µM (inactive) in each case. In addition, the GI50 in test [7], in [8], in [9], in test [10], in test [11] and in test [12] was > 100 µM (inactive) throughout. Besides, the GI50 in test [13] is > 100 µM (inactive).
With `CC(C)(C)C(=O)Cc1cc2c(cc1C(=O)O)S(=O)(=O)NC(C(C)(C)C)=C2`, the GI50 in [1], in [2], in test [3], in test [14], in test [5] and in test [15] was > 100 µM (inactive) throughout. Also, the GI50 in [7], in [8], in test [9], in test [10], in [11] and in test [12] was > 100 µM (inactive) in each case. In addition, the GI50 in test [13] is > 100 µM (inactive).
For `O=C(O)C12C=CC(C1)c1ccccc12` (stereo not given), the GI50 in [1] is > 100 µM (inactive); in test [2] it was > 100 µM (inactive); in test [3] it was > 100 µM (inactive); in [4], greater than 100 µM; in [14], > 100 µM (inactive); in [6], > 100 µM (inactive). Further, the GI50 in test [15], in test [7], in test [8], in test [9], in test [11] and in test [12] was > 100 µM (inactive) throughout. In addition, in test [13], the GI50 was > 100 µM (inactive).
In the case of `CCCCCCCCCCCCCCCC[N+](C)(C)Cc1ccc(C[N+](C)(C)CCCCCCCCCCCCCCCC)cc1`, the GI50 was > 100 µM (inactive) in test [1]; 2.09 µM (inactive) in [2]; 10.1 µM (inactive) in test [3]; 3.66 µM in test [4]; 2.28 µM (inactive) in [14]; 2.56 µM (inactive) in test [5]. In addition, the GI50 in [6] was 2.74 µM (inactive); in [7], 2.3 µM (inactive); in [8], 2.62 µM (inactive); in test [9], 2.52 µM (inactive); in test [10], 1.94 µM (inactive); in test [11], 2.39 µM (inactive). Besides, the GI50 in test [12] was 17.8 µM (inactive); in [13] it was 25.8 µM (inactive).
